These results are taken from patent US9175282B2, “Cellobiose 2-epimerase, its preparation and uses” (HAYASHIBARA CO., LTD., priority 2009, dated 2015).

The test system of test [1] is cellobiose 2-epimerase. The experiment in a line: Effect of metal ions on the epimerase activity. Particulars: for Inhibition of the epimerase activity by metal ion: 1 mM. It counts as biochemical, Caldicellusiruptor saccharolyticus ATCC43494.
The conditions of test [2]: ingested in rat; cited from earlier work.
The test system of test [3] is recombinant cellobiose 2-epimerase. The experiment in a line: Formation of isomerized saccharides from various saccharides, effect of the amount of enzyme. It counts as biochemical, Caldicellulosiruptor saccharolyticus ATCC43494. Particulars: for Content of isomerized saccharide in the reaction mixture (%): Epilactose / Content of isomerized saccharide in the reaction mixture (%): Lactulose: GC analysis. On the procedure: Each of them was dissolved into 20 mM acetate buffer (pH 6.0), admixed with the purified preparation of the recombinant cellobiose 2-epimerase, obtained by the method in Experiment 4-4, and followed the enzyme reaction under the conditions of 10% (w/v) substrate concentration, 60° C. for 72 hours. The amount of enzyme was set to 130 or 500 units/g-substrate when monosaccharide was used as the substrate, and to 1 or 130 units/g-substrate when disaccharide or trisaccharide was used as the substrate. Each reaction mixture was heated at 100° C. for 10 minutes to stop the reaction and subjected to HPLC analysis to determine the contents of isomerized saccharide, on a dry solid basis. The contents of epilactose and lactulose in the reaction mixture obtained using lactose as substrate were determined by GC analysis described in Experiment 1-2.

Test [4] shares this test system. The experiment in a line: Substrate specificity of cellobiose 2-epimerase by TLC. It counts as biochemical, Caldicellulosiruptor saccharolyticus ATCC43494. The arrangement: key to Action: −: No product is detected; ±: Some products are slightly detected; +: Some products are detected; ++: Some products are clearly detected. The note with it: for Action: 2% (w/w) substrate, MOPS buffer pH 8.0, 500 units/g-substrate, 60° C., 24 hours, product spot on TLC; for Action of the enzyme on the saccharide: summary of Table 3. On the procedure:
Substrate specificity of the enzyme was investigated by allowing the purified preparation of the recombinant cellobiose 2-epimerase, obtained by the method of Experiment 4-4, to act on various saccharides. Substrate solutions were prepared by dissolving D-glucose, D-xylose, D-allose, D-ribose, D-galactose, D-fructose, D-mannose, D-psicose, D-tagatose, L-sorbose, L-rhamnose, L-ribose, trehalose, kojibiose, nigerose, isomaltose, neotrehalose, gentiobiose, lactose, sucrose, maltulose, palatinose, maltose, maltotriose, maltotetraose, maltopentaose, maltohexaose, maltoheptaose, cellobiose, cellotriose, cellotetraose, selaginose, isomaltosyl-glucoside, isomaltotriose, panose, isopanose, erlose, maltitol, maltotriitol, methyl-α-glucoside, methyl-β-glucoside, D-glucosamine, D-galactosamine, D-glucuronic acid, N-acetyl-glucosamine, or N-acetyl-galactosamine into MOPS buffer (pH 8.0) to give a final concentration of 2% (w/w) of saccharide and 40 mM buffer.
Then, each of the resulting substrate solutions was further admixed with 500 units/g-substrate, on a dry solid basis, of the purified preparation of recombinant cellobiose 2-epimerase, obtained by the method in Experiment 4-4, and followed by the enzyme reaction at 60° C. for 24 hours. After stopping the reaction by heating the reaction mixture at 100° C. for 10 minutes, each reaction mixture was subjected to TLC analysis under the conditions in Experiment 1-2 to examine the saccharides in each mixture before and after the reaction. The substrate specificity of the enzyme was judged by investigating whether the spot of the reaction product except for the substrate is detected in the TLC chromatogram or not, and the degree of the strength of the visualized spot.

Test [5] shares this test system. The experiment in a line: Isomerized saccharides formed from monosaccharides (HPLC). It counts as biochemical, Caldicellulosiruptor saccharolyticus ATCC43494. Here is the method: Reaction products formed from D-glucose, D-galactose, and D-mannose by the action of the cellobiose 2-epimerase of the present invention were investigated. D-Glucose, D-galactose, or D-mannose was dissolved into 50 mM acetate buffer (pH 6.0) to give a final concentration of 20% (w/v) to make into a substrate solution. To 0.1 ml of the substrate solution, 130 units/g-solid substrate for D-glucose and D-mannose (0.1 ml as the enzyme solution), or 500 units/g-solid substrate for D-galactose (0.1 ml as the enzyme solution), of the purified preparation of the recombinant cellobiose 2-epimerase, obtained by the method in Experiment 4-4, was admixed; and followed the enzyme reaction at 60° C. for 48 hours.
After the completion of the reaction, reaction mixture was heated at 100° C. for 10 minutes to stop the reaction. Each reaction mixture was subjected to HPLC analysis for determining the product. HPLC analysis of the products in the reaction mixture was carried out under the following conditions for separating monosaccharides.

Setting [6] is: 1 unit/g-substrate, 10% (w/v) substrate, pH 6.0, 60° C., 72 hours.
Setting [7] is: 130 units/g-substrate, 10% (w/v) substrate, pH 6.0, 60° C., 72 hours.
Setting [8] is: 500 units/g-substrate, 10% (w/v) substrate, pH 6.0, 60° C., 72 hours.
[9] abbreviates: 500 units/g-substrate, pH 6.0, 60° C., 48 hours.
Setting [10] is: 130 units/g-substrate, pH 6.0, 60° C., 48 hours.

Where two headings read alike, the source gives them in different places.

For `[Cl][Cu][Cl]` [CuCl2], the “Inhibition of the epimerase activity by metal ion” value (“Inhibition” for short) in test [1] is listed as “almost completely inhibited”. In addition, in test [1] (metal salt 1 mM, None = 100), the “Relative activity (%)” value came to 1%.

`[Cl][Fe]([Cl])[Cl]` [FeCl3]: in test [1] (metal salt 1 mM, None = 100), the “Relative activity (%)” value turned out to be 33%.

For `OC[C@H]1O[C@@H](O[C@H]2[C@H](O)[C@H](O)C(O)O[C@@H]2CO)[C@H](O)[C@@H](O)[C@H]1O` (stereo partly drawn) [epilactose], in test [2], the “Amount of short-chain fatty acid in the intestine” value is listed as “increasing the amount of short-chain fatty acid in the intestine”, the “Calcium absorption in the small intestine” value is on record as “promoting calcium absorption in the small intestine” and the Plasma cholesterol level entry is listed as “lowering the plasma cholesterol level”.

Regarding `[Cl-].[Cl-].[Sr+2]` [SrCl2], the “Relative activity (%)” value in test [1] (metal salt 1 mM, None = 100) was determined as 104%.

Take `OC[C@H]1O[C@@H](O[C@H]2[C@H](O)[C@@H](O)C(O)O[C@@H]2CO)[C@H](O)[C@@H](O)[C@H]1O` (stereo partly drawn) [Lactose]: in test [3] (setting [6]), the “Content of isomerized saccharide in the reaction mixture (%): Epilactose” value was determined as 32.0% and the “Content of isomerized saccharide in the reaction mixture (%): Lactulose” value worked out at 0.0%. Moreover, in test [3] (setting [7]), the “Content of isomerized saccharide in the reaction mixture (%): Epilactose” value came to 12.8% and the “Content of isomerized saccharide in the reaction mixture (%): Lactulose” value is on record as 57.5%. Moreover, the “Action of the enzyme on the substrate” value in test [3] (summary of Table 5) was “relatively specifically acted”. In test [4], the Action result is listed as “++” and the “Action of the enzyme on the saccharide” value is “relatively strong specificity”.

On to `[Cl-].[Cl-].[Co+2]` [CoCl2], for which, in test [1], the “Relative activity (%)” value was 101%.

With `[Cl][Al]([Cl])[Cl]` [AlCl3], in test [1], the “Inhibition” value is on record as “inhibited”. The “Relative activity (%)” value in test [1] (metal salt 1 mM, None = 100) is 45%.

`[Cl][Hg][Cl]` [HgCl2]: the “Inhibition” value in test [1] is reported as “almost completely inhibited”. Moreover, the “Relative activity (%)” value in test [1] (metal salt 1 mM, None = 100) stood at 1%.

For `[Cl][Fe][Cl]` [FeCl2], the “Relative activity (%)” value in test [1] (metal salt 1 mM, None = 100) stood at 35%.

Turning to `[Cl][Mn][Cl]` [MnCl2], the “Relative activity (%)” value in test [1] (metal salt 1 mM, None = 100) is recorded as 104%.

As for `O=C[C@H](O)[C@@H](O)[C@@H](O)[C@H](O)CO` [D-Galactose], in test [3] (setting [8]), the “Content of isomerized saccharide in the reaction mixture (%): D-Tagatose” value was 9.2% and the “Content of isomerized saccharide in the reaction mixture (%): D-Talose” value is given as 11.0%. For the same compound, in test [4], the Action entry is “±” and the “Action of the enzyme on the saccharide” value is “slightly acted on”. In test [5], the “Action of the enzyme compared with D-glucose and D-mannose” value is “relatively weak”. In test [5] (setting [9]), the “Content (%, w/w) of product D-Tagatose” value is recorded as 8.4 %, w/w and the “Content (%, w/w) of product D-Talose” value is listed as 10.3 %, w/w.

With `O=C(CO)[C@@H](O)[C@@H](O)[C@H](O)CO` [D-Tagatose], in test [3] (setting [8]), the “Content of isomerized saccharide in the reaction mixture (%): D-Galactose” value is 4.7% and the “Content of isomerized saccharide in the reaction mixture (%): D-Talose” value came to 5.2%. For the same compound, in test [4], the Action entry is listed as “±” and the “Action of the enzyme on the saccharide” value is reported as “slightly acted on”.

With `[Cl][Ni][Cl]` [NiCl2], the “Relative activity (%)” value in test [1] (metal salt 1 mM, None = 100) stood at 103%.

Consider `O=C[C@@H](O)[C@@H](O)[C@H](O)[C@H](O)CO` [D-Mannose], for which, in test [3] (setting [7]), the “Content of isomerized saccharide in the reaction mixture (%): D-Fructose” value (“Content … (%): D-Fructose” for short) amounted to 6.6% and the “Content of isomerized saccharide in the reaction mixture (%): D-Glucose” value was 45.8%. Further, in test [4], the Action entry is “+” and the “Action of the enzyme on the saccharide” value is on record as “acted on”. Moreover, in test [5] (setting [10]), the “Content (%, w/w) of product D-Fructose” value is given as 5.1 %, w/w and the “Content (%, w/w) of product D-Glucose” value was 41.8 %, w/w.

Turning to `[Cl-].[Cl-].[Zn+2]` [ZnCl2], the “Inhibition” value in test [1] is “almost completely inhibited”. For the same compound, the “Relative activity (%)” value in test [1] (metal salt 1 mM, None = 100) is on record as 1%.

Turning to `O=C[C@H](O)[C@@H](O)[C@H](O)[C@H](O)CO` [D-Glucose], in test [3] (setting [7]), the “Content … (%): D-Fructose” value is on record as 5.0% and the “Content of isomerized saccharide in the reaction mixture (%): D-Mannose” value came out at 20.9%. Also, in test [3] (setting [8]), the “Content … (%): D-Fructose” value is on record as 9.2% and the “Content of isomerized saccharide in the reaction mixture (%): D-Mannose” value came to 23.3%. In test [4], the Action result is given as “+” and the “Action of the enzyme on the saccharide” value is on record as “acted on”. Besides, in test [5] (setting [10]), the “Content (%, w/w) of product D-Fructose” value is recorded as 3.8 %, w/w and the “Content (%, w/w) of product D-Mannose” value is on record as 20.6 %, w/w.

Take `[Cl][Pb][Cl]` [PbCl2]: in test [1], the “Inhibition” value was “inhibited”. Besides, in test [1] (metal salt 1 mM, None = 100), the “Relative activity (%)” value is listed as 36%.

Consider `[Ca+2].[Cl-].[Cl-]` [CaCl2], for which, in test [1] (metal salt 1 mM, None = 100), the “Relative activity (%)” value is given as 107%.

Regarding `OC[C@H]1O[C@H](O[C@H]2[C@H](O)[C@@H](O)[C@H](O)O[C@@H]2CO)[C@H](O)[C@@H](O)[C@@H]1O` [Maltose], in test [3] (setting [7]), the “Content of isomerized saccharide in the reaction mixture (%): Epimaltose” value is reported as 22.2% and the “Content of isomerized saccharide in the reaction mixture (%): Maltulose” value stood at 7.7%. Moreover, in test [4], the Action result is “+” and the “Action of the enzyme on the saccharide” value is “acted on”.

For `[Ba+2].[Cl-].[Cl-]` [BaCl2], the “Relative activity (%)” value in test [1] (metal salt 1 mM, None = 100) came to 108%.

Turning to `[Cl-].[Cl-].[Mg+2]` [MgCl2], the “Relative activity (%)” value in test [1] (metal salt 1 mM, None = 100) is given as 106%.

For `NC(CO)(CO)CO` [Tris], the “Relative activity (%)” value in test [1] (metal salt 1 mM, None = 100) came to 93%.

In the case of `O=C(O)CN(CCN(CC(=O)O)CC(=O)O)CC(=O)O` [EDTA], the “Relative activity (%)” value in test [1] (metal salt 1 mM, None = 100) stood at 99%.
